Test results taken from US11566057B2, “Long-acting co-agonists of the glucagon and GLP-1 receptors” (Merck Sharp & Dohme Corp., priority 2017, dated 2023).
Numbered stars: 1 amine (or outer) side, 2 acyl side, 3 side chain; on linkers, the order of the positions; unused ones are H or OH. Square brackets hold non-standard residues; d marks the D form. Side chains are listed from the residue outwards. Peptide text beside a SMILES is read from it. * marks the point of attachment. C20 diacid = O=C(O)CCCCCCCCCCCCCCCCCCC(=O)*; Phe(4-CH2NH2) = NCc1ccc(C[C@H](N)C(=O)O)cc1; C18 diacid = O=C(O)CCCCCCCCCCCCCCCCC(=O)*; γGlu = O=C(O)[C@H](CCC(=O)[*:2])N[*:1]; Met(O2) = CS(=O)(=O)CC[C@H](N)C(=O)O; αMeD = C[C@](N)(CC(=O)O)C(=O)O; AEEA = NCCOCCOCC(=O)O; Aib = CC(C)(N)C(=O)O

target: T1, human GCGR (Homo sapiens, UniProt P47871); experiment: cAMP activity assay at the Glucagon receptor (GCGR); type: cell-based; settings: ratio of GCGR EC50 to GLP1R EC50
T1 construct: expressed in transfected cells; growth medium holds Blasticidin and Hygromycin
T1 sequence (P47871 26-477): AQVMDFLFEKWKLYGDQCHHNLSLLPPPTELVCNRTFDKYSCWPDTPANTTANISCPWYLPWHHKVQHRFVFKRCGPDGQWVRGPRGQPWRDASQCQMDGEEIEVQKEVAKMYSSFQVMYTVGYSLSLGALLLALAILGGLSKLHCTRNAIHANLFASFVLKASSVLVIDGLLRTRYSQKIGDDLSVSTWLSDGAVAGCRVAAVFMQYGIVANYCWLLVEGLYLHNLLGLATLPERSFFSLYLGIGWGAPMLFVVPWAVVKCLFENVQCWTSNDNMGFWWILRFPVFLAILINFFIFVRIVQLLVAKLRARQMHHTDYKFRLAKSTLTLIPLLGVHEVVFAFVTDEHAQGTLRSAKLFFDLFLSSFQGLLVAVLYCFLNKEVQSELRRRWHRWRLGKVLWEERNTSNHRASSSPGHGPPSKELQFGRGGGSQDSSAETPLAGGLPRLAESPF
Procedure: Activity of the peptides at the Glucagon receptor (GCGR) and GLP-1 receptor (GLP1R) was measured in a cAMP activity assay.
GCG/GLP-1 receptor co-agonist peptides were dissolved in 100% DMSO (dimethyl sulfoxide) and serially diluted to generate 10 point titrations. The peptide solutions were then transferred into 384-well assay plates (150 nL/well). Assay ready frozen cells expressing human GLP1R or human GCGR were suspended in growth media consisting of DMEM medium (GIBCO®), 10% FBS (GIBCO®), 1×NEAA(GIBCO®), 1×P/S (GIBCO®), 10 ug/mL Blasticidin (GIBCO®) and 200 μg/mL Hygromycin (GIBCO®). […] The cell suspensions (15 μL) were then added to the assay plates containing the peptide solutions (30,000 cells/well for human GCGR; 10,000 cells/well for human GLP1R). The cells were incubated for 1 hour at room temperature in the dark. Production of cAMP was determined using HitHunter™ cAMPXS kits (DiscoverX) following manufacturer protocol. The plates were incubated for overnight at room temperature in the dark. Luminescence was measured using an EnVision Multilabel plate reader (Perkin Elmer). Native GLP-1 and Glucagon (Bachem) are used as control peptides. EC50 values were calculated using uses a 4 parameter logistic fit based on the Levenberg-Marquardt algorithm.

Row | Structure (SMILES) | hGCGR/hGLP1R (hTone)
1 | CC(C)C[C@H](NC(=O)[C@H](Cc1ccc(O)cc1)NC(=O)[C@H](CCCCN)NC(=O)[C@H](CO)NC(=O)[C@H](Cc1ccc(O)cc1)NC(=O)[C@H](CC(=O)O)NC(=O)[C@H](CO)NC(=O)[C@@H](NC(=O)[C@H](Cc1ccccc1)NC(=O)[C@@H](NC(=O)CNC(=O)[C@H](CCC(N)=O)NC(=O)C(C)(C)NC(=O)[C@@H](N)Cc1c[nH]cn1)[C@@H](C)O)[C@@H](C)O)C(=O)N[C@@H](CC(=O)O)C(=O)N[C@@H](C)C(=O)N[C@@H](CCCNC(=N)N)C(=O)N[C@@H](C)C(=O)N[C@@H](C)C(=O)N[C@@H](CCC(N)=O)C(=O)N[C@@H](Cc1ccc(CNC(=O)COCCOCCNC(=O)COCCOCCNC(=O)CC[C@H](NC(=O)CCCCCCCCCCCCCCCCC(=O)O)C(=O)O)cc1)C(=O)N[C@@H](Cc1ccccc1)C(=O)N[C@H](C(=O)N[C@@H](CCC(N)=O)C(=O)N[C@@H](Cc1c[nH]c2ccccc12)C(=O)N[C@@H](CC(C)C)C(=O)N[C@@H](CC(C)C)C(=O)N[C@@H](CC(=O)O)C(=O)N[C@H](C(N)=O)[C@@H](C)O)C(C)C [TP443] (H-H[Aib]QGTFTSDYSKYLDARAAQ[Phe(4-CH2NH2)]([AEEA-AEEA-γGlu-C18 diacid])FVQWLLDT-NH2) | 1.8
2 | CC(C)C[C@H](NC(=O)[C@H](Cc1ccc(O)cc1)NC(=O)[C@H](CCCCN)NC(=O)[C@H](CO)NC(=O)[C@H](Cc1ccc(O)cc1)NC(=O)[C@H](CC(=O)O)NC(=O)[C@H](CO)NC(=O)[C@@H](NC(=O)[C@H](Cc1ccccc1)NC(=O)[C@@H](NC(=O)CNC(=O)[C@H](CCC(N)=O)NC(=O)C(C)(C)NC(=O)[C@@H](N)Cc1c[nH]cn1)[C@@H](C)O)[C@@H](C)O)C(=O)N[C@@H](CC(=O)O)C(=O)N[C@@H](C)C(=O)N[C@@H](CCCNC(=N)N)C(=O)N[C@@H](C)C(=O)N[C@@H](C)C(=O)N[C@@H](CCCCNC(=O)COCCOCCNC(=O)COCCOCCNC(=O)CC[C@H](NC(=O)CCCCCCCCCCCCCCCCCCC(=O)O)C(=O)O)C(=O)N[C@@H](CC(=O)O)C(=O)N[C@@H](Cc1ccccc1)C(=O)N[C@H](C(=O)N[C@@H](CCC(N)=O)C(=O)N[C@@H](Cc1c[nH]c2ccccc12)C(=O)N[C@@H](CC(C)C)C(=O)N[C@@H](CCS(C)(=O)=O)C(=O)N[C@@](C)(CC(=O)O)C(=O)N[C@H](C(N)=O)[C@@H](C)O)C(C)C [TP565] (H-H[Aib]QGTFTSDYSKYLDARAAK([AEEA-AEEA-γGlu-C20 diacid])DFVQWL[Met(O2)][αMeD]T-NH2; N-terminus assumed) | 2.4
3 | CC(C)C[C@H](NC(=O)[C@H](Cc1c[nH]c2ccccc12)NC(=O)[C@H](CCCCNC(=O)COCCOCCNC(=O)COCCOCCNC(=O)CC[C@H](NC(=O)CCCCCCCCCCCCCCCCC(=O)O)C(=O)O)NC(=O)[C@@H](NC(=O)[C@H](Cc1ccccc1)NC(=O)[C@H](CC(=O)O)NC(=O)[C@H](CCC(N)=O)NC(=O)[C@H](C)NC(=O)[C@H](C)NC(=O)[C@H](CCCNC(=N)N)NC(=O)C(C)(C)NC(=O)[C@H](CC(=O)O)NC(=O)[C@H](CC(C)C)NC(=O)[C@H](Cc1ccc(O)cc1)NC(=O)[C@H](CCCCN)NC(=O)[C@H](CO)NC(=O)[C@H](Cc1ccc(O)cc1)NC(=O)[C@H](CC(=O)O)NC(=O)[C@H](CO)NC(=O)[C@@H](NC(=O)[C@H](Cc1ccccc1)NC(=O)[C@@H](NC(=O)CNC(=O)[C@H](CCC(N)=O)NC(=O)C(C)(C)NC(=O)[C@@H](N)Cc1c[nH]cn1)[C@@H](C)O)[C@@H](C)O)C(C)C)C(=O)N[C@@H](CCS(C)(=O)=O)C(=O)N[C@@H](CC(=O)O)C(=O)N[C@H](C(N)=O)[C@@H](C)O [TP575] (H-H[Aib]QGTFTSDYSKYLD[Aib]RAAQDFVK([AEEA-AEEA-γGlu-C18 diacid])WL[Met(O2)]DT-NH2; N-terminus assumed) | 0.7
4 | CC(C)C[C@H](NC(=O)[C@H](CC(C)C)NC(=O)[C@H](Cc1c[nH]c2ccccc12)NC(=O)[C@H](CCC(N)=O)NC(=O)[C@@H](NC(=O)[C@H](Cc1ccccc1)NC(=O)[C@H](CC(=O)O)NC(=O)[C@H](CCC(N)=O)NC(=O)[C@H](C)NC(=O)[C@H](C)NC(=O)[C@H](CCCNC(=N)N)NC(=O)C(C)(C)NC(=O)[C@H](CC(=O)O)NC(=O)[C@H](CC(C)C)NC(=O)[C@H](Cc1ccc(O)cc1)NC(=O)[C@H](CCCCN)NC(=O)[C@H](CO)NC(=O)[C@H](Cc1ccc(CNC(=O)COCCOCCNC(=O)COCCOCCNC(=O)CC[C@H](NC(=O)CCCCCCCCCCCCCCCCCCC(=O)O)C(=O)O)cc1)NC(=O)[C@H](CC(=O)O)NC(=O)[C@H](CO)NC(=O)[C@@H](NC(=O)[C@H](Cc1ccccc1)NC(=O)[C@@H](NC(=O)CNC(=O)[C@H](CCC(N)=O)NC(=O)C(C)(C)NC(=O)[C@@H](N)Cc1c[nH]cn1)[C@@H](C)O)[C@@H](C)O)C(C)C)C(=O)N[C@@H](C)C(=O)N[C@H](C(=O)N[C@@H](CCCCNC(=O)CC[C@H](N)C(=O)O)C(N)=O)[C@@H](C)O [TP581] (H-H[Aib]QGTFTSD[Phe(4-CH2NH2)]([AEEA-AEEA-γGlu-C20 diacid])SKYLD[Aib]RAAQDFVQWLLATK(γGlu)-NH2; N-terminus assumed) | 2.9
5 | CC(C)C[C@H](NC(=O)[C@H](Cc1ccc(O)cc1)NC(=O)[C@H](CCCCN)NC(=O)[C@H](CO)NC(=O)[C@H](Cc1ccc(O)cc1)NC(=O)[C@H](CC(=O)O)NC(=O)[C@H](CO)NC(=O)[C@@H](NC(=O)[C@H](Cc1ccccc1)NC(=O)[C@@H](NC(=O)CNC(=O)[C@H](CCC(N)=O)NC(=O)C(C)(C)NC(=O)[C@@H](N)Cc1c[nH]cn1)[C@@H](C)O)[C@@H](C)O)C(=O)N[C@@H](CC(=O)O)C(=O)N[C@@H](C)C(=O)N[C@@H](CCCNC(=N)N)C(=O)N[C@@H](C)C(=O)N[C@@H](C)C(=O)N[C@@H](CCC(N)=O)C(=O)N[C@@H](CC(=O)O)C(=O)N[C@@H](Cc1ccccc1)C(=O)N[C@H](C(=O)N[C@@H](Cc1ccc(CNC(=O)COCCOCCNC(=O)COCCOCCNC(=O)CC[C@H](NC(=O)CCCCCCCCCCCCCCCCC(=O)O)C(=O)O)cc1)C(=O)N[C@@H](Cc1c[nH]c2ccccc12)C(=O)N[C@@H](CC(C)C)C(=O)N[C@@H](CC(C)C)C(=O)N[C@@H](CC(=O)O)C(=O)N[C@H](C(N)=O)[C@@H](C)O)C(C)C [TP583] (H-H[Aib]QGTFTSDYSKYLDARAAQDFV[Phe(4-CH2NH2)]([AEEA-AEEA-γGlu-C18 diacid])WLLDT-NH2; N-terminus assumed) | 8.6
6 | CC(C)C[C@H](NC(=O)[C@H](Cc1ccc(O)cc1)NC(=O)[C@H](CCCCN)NC(=O)[C@H](CO)NC(=O)[C@H](Cc1ccc(O)cc1)NC(=O)[C@H](CC(=O)O)NC(=O)[C@H](CO)NC(=O)[C@@H](NC(=O)[C@H](Cc1ccccc1)NC(=O)[C@@H](NC(=O)CNC(=O)[C@H](CCC(N)=O)NC(=O)C(C)(C)NC(=O)[C@@H](N)Cc1c[nH]cn1)[C@@H](C)O)[C@@H](C)O)C(=O)N[C@@H](CC(=O)O)C(=O)N[C@@H](C)C(=O)N[C@@H](CCCNC(=N)N)C(=O)N[C@@H](C)C(=O)N[C@@H](C)C(=O)N[C@@H](CCC(N)=O)C(=O)N[C@@H](Cc1ccc(CNC(=O)COCCOCCNC(=O)COCCOCCNC(=O)CC[C@H](NC(=O)CCCCCCCCCCCCCCCCCCC(=O)O)C(=O)O)cc1)C(=O)N[C@@H](Cc1ccccc1)C(=O)N[C@H](C(=O)N[C@@H](CCC(N)=O)C(=O)N[C@@H](Cc1c[nH]c2ccccc12)C(=O)N[C@@H](CC(C)C)C(=O)N[C@@H](CC(C)C)C(=O)N[C@@H](CC(=O)O)C(=O)N[C@H](C(N)=O)[C@@H](C)O)C(C)C [TP585] (H-H[Aib]QGTFTSDYSKYLDARAAQ[Phe(4-CH2NH2)]([AEEA-AEEA-γGlu-C20 diacid])FVQWLLDT-NH2; N-terminus assumed) | 2.0
